Tests used:
[1] = target: serotonergic 5-HT1A receptor (5-HT1AR); parameters: method as in PMID 27353547; conditions: ref [8]; cited from earlier work
PDE10A = system: PDE10A; parameters: method as in PMID 27353547; conditions: in vitro, bioluminescent detection system; ref [8]; cited from earlier work
[2] = Plasma ALAT and γ-GTP activity after repeated administration; format: in vivo, Swiss albino mice; conditions: mice, AZ-853 0.625, AZ-861 1.25 mg/kg b.w./day
Description: (§1) The Swiss albino mice were used in the experiment. AZ-853 and AZ-861 were injected once daily for 16 consecutive days. On the 1st and 15th day the administration of the compounds, 18-h spontaneous animal activity was registered (see below). FST, as described earlier, was performed on the 14th day just before the next treatment. To ensure that the effects observed in FST are not the result of increased motility of animals, on the 13th day, just before the next administration, the locomotor activity was measured as described earlier, from 2 to 6 min after test start, i.e. in the period identical to the duration of FST. Blood and organ collection was performed on the 17th day at 24 h after the last dose and fasting.
Blood samples were collected from the Swiss albino mice 24 h after the last administration of the tested compounds or vehicle. To determine glucose, cholesterol and triglyceride levels in the plasma, standard enzymatic spectrophotometric tests (Biomaxima S.A. Lublin, Poland) were used. In the presence of appropriate enzyme, the substrate was converted to a colored compound. Absorbance was measured at a wavelength of 500 nm. To determine alanine aminotransferase (ALAT) or γ-glutamyl transpeptidase (γ-GTP) activities in the plasma, the standard enzymatic spectrophotometric test (Biomaxima S.A.) was used. Absorbance was measured at 340 nm (ALAT) or 405 nm (γ-GTP).

human serotonin 5-HT1AR = target: T1, human serotonin 5-HT1AR (Homo sapiens, UniProt P08908); experiment: cAMP inhibition (LANCE Ultra cAMP, forskolin-stimulated CHO-K1 cells)
T1 sequence (P08908 1-422): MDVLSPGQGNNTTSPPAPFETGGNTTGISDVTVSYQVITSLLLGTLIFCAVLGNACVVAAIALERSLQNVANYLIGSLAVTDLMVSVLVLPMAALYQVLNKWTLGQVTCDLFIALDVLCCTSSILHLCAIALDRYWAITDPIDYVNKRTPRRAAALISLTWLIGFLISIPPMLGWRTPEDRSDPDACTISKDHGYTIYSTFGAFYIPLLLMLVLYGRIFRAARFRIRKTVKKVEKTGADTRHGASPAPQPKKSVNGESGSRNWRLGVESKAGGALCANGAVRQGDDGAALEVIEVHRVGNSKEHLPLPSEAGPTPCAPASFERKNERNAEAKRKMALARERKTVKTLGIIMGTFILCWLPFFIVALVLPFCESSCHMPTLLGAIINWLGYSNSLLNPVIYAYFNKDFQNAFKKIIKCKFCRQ
Description: CHO-K1 cell line transfected with 5-HT1A receptor, were commercially obtained from Perkin Elmer (Cat. No. ES-310-C, Lot Number M2W-C1). Cells were cultured according to manufacturer’s instruction.
The cells were cultured under selective conditions (400 μg/mL Geneticin G418). Thawed cells were resuspended in stimulation buffer (HBSS, 5 mM HEPES, 0.5 IBMX, and 0.1% BSA at pH 7.4) at 2 × 10^5 cells/mL. The same volume (10 μL) of cell suspension was added to tested compounds with 10 μM forskolin. Cell stimulation was performed for 40 min at room temperature. After incubation, cAMP measurements were performed with homogeneous TR-FRET immunoassay using the LANCE Ultra cAMP kit (PerkinElmer, USA) according to the manufacturer’s instruction (PerkinElmer). The TR-FRET signal was read on an EnVision microplate reader (PerkinElmer, USA).

mice = experiment: Spontaneous activity monitoring (RFID TraffiCage, 18 h); format: in vivo, Swiss albino mice; conditions: for Mean counts, spontaneous activity: 1.25 mg/kg
Description: as §1
The spontaneous activity of the mice was measured on the 1st and 15th day of the treatment with a special, innovative radiofrequency identification system (RFID-system)—TraffiCage (TSE-Systems, Germany). The test was conducted according to the method described in the literature. The animals had the transmitter (RFID) subcutaneously implanted, which tracked the time they spent in different areas of the cage. The data obtained were then grouped in a special computer program.

human 5-HT1AR = target: T2, human 5-HT1AR (Homo sapiens, UniProt P08908); experiment: β-Arrestin recruitment (Tango LiveBLAzer, HTR1A-bla U2OS cells)
T2 sequence (P08908 1-422): T1 sequence (P08908 1-422)
Description: Cells were cultured according to manufacturer’s instruction. […] This parental cell line stably expresses a beta-arrestin/TEV protease fusion protein and the beta-lactamase reporter gene under the control of a UAS response element. The Tango™ HTR1A-bla U2OS cells have been functionally validated for a response to 5-CT. This cell line tested negative for mycoplasma.
The HTR1A-bla U2OS receptor cells containing the human 5-HT1AR linked to a TEV protease site and a Gal4-VP16 transcription factor were tested for recruitment of β-arrestin. […] The recruitment of β-arrestin were tested using the Tango LiveBLAzer assay kit according to the manufacturer’s instruction (Life Technologies). The assay plate was measured in FLUOstar Optima, a multifunction plate reader (BMG Lab Tech).

[3] = 18-h monitoring, AZ-853 0.625, AZ-861 1.25 mg/kg b.w./day

increase of plasma γ-GTP activity [2]: did not change activity
EC50 (human serotonin 5-HT1AR): 4.37 nM
Emax (human serotonin 5-HT1AR; CHO-K1, read-out: Emax (%) ± SEM, agonist mode): 76 ± 1.7%
higher potency than 5-HT (human serotonin 5-HT1AR; cAMP inhibition): 2.6 fold
lower efficacy than 5-HT (human serotonin 5-HT1AR; cAMP inhibition): 1.3 fold
spontaneous activity after the 1st administration vs. control (mice; [3]): No effect on locomotor activity
Mean counts, spontaneous activity (mice; after 1st administration, 1 h after administration): 223.1 counts
Mean counts, spontaneous activity (mice; after 1st administration, 2 h after administration): 212.3 counts
Mean counts, spontaneous activity (mice; after 1st administration, 3 h after administration): 190.0 counts
Mean counts, spontaneous activity (mice; after 1st administration, 4 h after administration): 112.6 counts
Mean counts, spontaneous activity (mice; after 1st administration, 5 h after administration): 125.9 counts
Mean counts, spontaneous activity (mice; after 1st administration, 6 h after administration): 188.8 counts
Mean counts, spontaneous activity (mice; after 1st administration, 7 h after administration): 229.5 counts
Mean counts, spontaneous activity (mice; after 1st administration, 8 h after administration): 268.3 counts
Mean counts, spontaneous activity (mice; after 1st administration, 9 h after administration): 274.6 counts
Mean counts, spontaneous activity (mice; after 1st administration, 10 h after administration): 298.0 counts
Mean counts, spontaneous activity (mice; after 1st administration, 11 h after administration): 311.6 counts
Mean counts, spontaneous activity (mice; after 1st administration, 12 h after administration): 274.9 counts
Mean counts, spontaneous activity (mice; after 1st administration, 13 h after administration): 290.8 counts
Mean counts, spontaneous activity (mice; after 1st administration, 14 h after administration): 267.1 counts
Mean counts, spontaneous activity (mice; after 1st administration, 15 h after administration): 232.3 counts
Mean counts, spontaneous activity (mice; after 1st administration, 16 h after administration): 255.3 counts
Mean counts, spontaneous activity (mice; after 1st administration, 17 h after administration): 318.8 counts
Mean counts, spontaneous activity (mice; after 1st administration, 18 h after administration): 275.9 counts
Mean counts, spontaneous activity (mice; after 15th administration, 1 h after administration): 228.5 counts
Mean counts, spontaneous activity (mice; after 15th administration, 2 h after administration): 121.0 counts
Mean counts, spontaneous activity (mice; after 15th administration, 3 h after administration): 91.6 counts
Mean counts, spontaneous activity (mice; after 15th administration, 4 h after administration): 149.1 counts
Mean counts, spontaneous activity (mice; after 15th administration, 5 h after administration): 154.4 counts
Mean counts, spontaneous activity (mice; after 15th administration, 6 h after administration): 159.0 counts
Mean counts, spontaneous activity (mice; after 15th administration, 7 h after administration): 185.0 counts
Mean counts, spontaneous activity (mice; after 15th administration, 8 h after administration): 140.4 counts
Mean counts, spontaneous activity (mice; after 15th administration, 9 h after administration): 144.0 counts
Mean counts, spontaneous activity (mice; after 15th administration, 10 h after administration): 195.7 counts
Mean counts, spontaneous activity (mice; after 15th administration, 11 h after administration): 177.3 counts
Mean counts, spontaneous activity (mice; after 15th administration, 12 h after administration): 236.1 counts
Mean counts, spontaneous activity (mice; after 15th administration, 13 h after administration): 169.1 counts
Mean counts, spontaneous activity (mice; after 15th administration, 14 h after administration): 242.3 counts
Mean counts, spontaneous activity (mice; after 15th administration, 15 h after administration): 172.6 counts
Mean counts, spontaneous activity (mice; after 15th administration, 16 h after administration): 218.9 counts
Mean counts, spontaneous activity (mice; after 15th administration, 17 h after administration): 210.1 counts
Mean counts, spontaneous activity (mice; after 15th administration, 18 h after administration): 244.6 counts
EC50 (human 5-HT1AR): 0.372 nM
Emax (human 5-HT1AR; U2OS, read-out: Emax (%) ± SEM, agonist mode): 95 ± 1.7%
increased potency as compared to 5-HT (human 5-HT1AR; β-arrestin recruitment): 1000 fold
SMILES: Cn1c(=O)c2c(nc3n(CCCCN4CCN(c5cccc(C(F)(F)F)c5)CC4)ccn23)n(C)c1=O [AZ-861, 1,3-dimethyl-8-(4-(4-(3-(trifluoromethyl)phenyl)piperazin-1-yl)butyl)-1H-imidazo[2,1-f]purine-2,4(3H,8H)-dione]
Ki [1]: 0.2 nM
PDE10A inhibitory activity (PDE10A): did not induce PDE4B and PDE10A inhibitory activity
plasma ALAT activity vs. control [2]: did not lead to significant changes in ALAT activity
spontaneous activity after the 15th administration vs. control (mice; [3]): significant decrease in spontaneous activity
